Source: patent US9290473B2, “Inhibitors of phosphatidylinositol-3-kinase (PI3) and inducers of nitric oxide (NO)” (COUCIL OF SCIENTIFIC & INDUSTRIAL RESEARCH, priority 2009, dated 2016)

How the values were obtained:
[1] = test system: breast cancer cell line MCF-7; assay: Cell viability, trypan blue exclusion, MCF-7; type: cell-based, human; conditions: 72 hours incubation
Source text: Following cancer cell lines were used: chronic myeloid leukemia cell lines K562, KU812; acute myeloid leukemia cell lines HL60, U937; T-lymphoblastic leukemia cell line Molt-4; prostate cancer cell line PC-3; breast cancer cell line MCF-7; pancreatic cancer cell line MIA PaCa-2. These cancer cell lines were maintained in tissue culture in standard growth medium containing 10% heat-inactivated fetal bovine serum (FBS). Normal human peripheral blood mononuclear cells (PBMC) were separated from whole blood by Ficoll/Hypaque density gradient centrifugation. Peripheral blood samples were collected from normal donors with due approval from the Human Ethics Committee of Indian Institute of Chemical Biology, Kolkata, India, and all experiments with human blood were conducted under an approved institutional Human Ethics committee protocol. Informed consent was provided according to the Declaration of Helsinki. Cancer cell lines and PBMC (5×10^3) in triplicate were incubated in 0.2 mL of standard growth medium containing 10% FBS with varying concentrations of test compounds of the present invention. After 72 hours of incubation, cells were collected by centrifugation (at 1000 g for 5 minutes) and cell-viability was determined by the trypan blue exclusion assay. At least 200 cells were examined in each sample. Because of monolayer culture, treated and untreated PC-3, MCF-7 and MIA PaCa-2 cells were detached from the wells by treatment with Cell Dissociation Solution (Sigma Chemical, St. Louis, Mo.) before counting. Data are represented as IC50 (minimum concentration required to inhibit the viability by 50%) in Table 5.

normal human PBMC = assay: Apoptosis/necrosis of normal human PBMC by flow cytometry; type: cell-based; conditions: 30 μM, 24 hours
Protocol: FIG. 2C indicates flow cytometric determination of apoptosis and necrosis of normal human PBMC by Compound 1 (30 μM) and Compound 7 (30 μM) after incubation for 24 hours.

[2] = test system: Ehrlich ascites carcinoma (EAC); assay: Ehrlich ascites carcinoma (EAC) model in vivo; conditions: 30 mg/kg body weight intraperitoneally thrice a week for three weeks, Swiss albino mice
Source text: The in vitro studies indicate that hydroxychavicol and other compounds of the present invention induce killing of a variety of cancer cell lines including breast cancer cell line MCF-7 (Table 5). The MCF-7 cell line is of epithelial origin. Studies were extended in vivo in mouse model for a tumor of epithelial origin. Ehrlich ascites carcinoma is a tumor of epithelial origin (Cancer Research, 1958, 18, 1167-1185). EAC was established in Swiss albino mice as described (Biochemical and Biophysical Research Communications, 2001, 288, 658-665). Swiss albino mice were injected with EAC (2×10^6 cells/mouse) intraperitoneally. 2 days post-injection of tumor cells, these mice (5 per group) were injected intraperitoneally with Compound No. 1 (hydroxychavicol) (30 mg/kg body weight) or Compound No. 7 (30 mg/kg body weight) thrice a week for three weeks. One week after the last injection, mice were sacrificed, and viable cells from peritoneal cavity were counted microscopically. Vehicle (dimethyl sulphoxide [DMSO], 0.1%) was used as control.

## C=CCc1ccc(O)c(O)c1 [Compound 1, 4-allyl-benzene-1,2-diol]
[1]
  IC50: 35 µM
[1]; Homo sapiens, MCF7, 72 h
  IC50: 25 to 70 µM
Normal human PBMC
  Apoptosis and necrosis of normal human PBMC by flow cytometry: remained unaffected
[2]
  In vivo efficacy against EAC tumor (viable cells from peritoneal cavity): effective in vivo in destroying EAC tumor
